# Results taken from patent publication US9409905B2, “Antibacterial compounds and methods for use” (PTC THERAPEUTICS, INC., priority 2011, dated 2016).
# Assays:
# [1] = system: Acinetobacter baumannii (A. baumannii) BAA747; test: Antibacterial activity, MIC (Table 4); type: cell-based; settings: A. baumannii BAA747, read-out: MIC, BAA747
# Procedure, shortened: (§1)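 Values are MICs in μg/mL, read as the lowest compound concentration at which no growth is visible by eye. They come from a microbroth dilution method.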
# [2] = system: Klebsiella pneumoniae (K. pneumoniae) 35657; test: Antibacterial activity, MIC (Table 4); type: cell-based; settings: K. pneumoniae 35657, read-out: MIC, 35657
# Procedure, shortened: as §1
# [3] = system: A. baumannii MXX2240; test: Antibacterial activity, MIC, resistant strain (Table 4); type: cell-based; settings: Acinetobacter baumannii, MXX2240; resistant A. baumannii MMX2240, multi-drug resistant clinical isolate; read-out: MIC, MMX2240
# Procedure, shortened: as §1
# [4] = system: K. pneumoniae MXX1232; test: as above; type: cell-based; settings: Klebsiella pneumoniae, MXX1232; resistant K. pneumoniae MMX1232, multi-drug resistant clinical isolate; read-out: MIC, MMX1232
# Procedure, shortened: as §1
# [5] = system: E. coli 25922; test: Antibacterial activity, microbroth dilution MIC (Table 1); type: cell-based, Escherichia coli; settings: Escherichia coli; microbroth dilution; control Gram-negative E. coli 25922 strain; read-out: MIC, 25922
# Procedure, shortened: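 Microbroth dilution was used. MIC, in μg/mL, is the lowest drug concentration preventing macroscopically visible growth under the test conditions.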
# [6] = system: Staphylococcus aureus (S. aureus) 29213; test: as above; type: cell-based; settings: microbroth dilution, Gram-positive S. aureus 29213, read-out: MIC, 29213
# Procedure, shortened: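 In a microbroth dilution test, the minimum inhibitory concentration was defined as the lowest compound level preventing growth seen by eye, and was given in μg/mL.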
# [7] = system: Escherichia coli (E. coli) BAS849; test: as above; type: cell-based; settings: microbroth dilution, super sensitive Gram-negative E. coli BAS849, read-out: MIC, BAS849
# Procedure, shortened: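 Broth microdilution; endpoint = no macroscopic growth; value = lowest inhibiting concn, μg/mL.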
# [8] = system: Pseudomonas aeruginosa (P. aeruginosa) 27853; test: Antibacterial activity, MIC (Table 5); type: cell-based; settings: P. aeruginosa 27853, read-out: MIC, 27853
# Procedure, shortened: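 MIC in μg/mL from broth microdilution; endpoint is the lowest drug level giving no visible growth.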
# [9] = system: E. coli LZ3111; test: Antibacterial activity, MIC, quinolone resistant strain (Table 2); type: cell-based; settings: Escherichia coli, LZ3111, read-out: MIC LZ3111
# Procedure, shortened: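 Lowest concentration giving no macroscopically visible growth was taken as the MIC (μg/mL) after microbroth dilution testing.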
Structure (SMILES),MIC [1] [µg/mL],MIC [2] [µg/mL],MIC [3] [µg/mL],MIC [4] [µg/mL],MIC [5] [µg/mL],MIC [6] [µg/mL],MIC [7] [µg/mL],MIC [8] [µg/mL],MIC [9] [µg/mL]
"CCCc1c(-c2ccc3c(c2)cc(CN(C)C)n3C)[nH]c(=O)c(C(=O)O)c1O [Cpd 340, 6-(2-((dimethylamino)methyl)-1-methyl-1H-indol-5-yl)-4-hydroxy-2-oxo-5-propyl-1,2-dihydropyridine-3-carboxylic acid]",12.5 to 150,3.5 to 12.5,3.5 to 12.5,12.5 to 150,3.5 to 12.5,12.5 to 150,< 1,12.5 to 150,3.5 to 12.5
"CCc1cc(C(=O)O)c(=O)[nH]c1-c1cnc2c(ccn2C)c1 [Cpd 31, 5-ethyl-6-(1-methyl-1H-pyrrolo[2,3-b]pyridin-5-yl)-2-oxo-1,2-dihydropyridine-3-carboxylic acid]",12.5 to 150,12.5 to 150,12.5 to 150,12.5 to 150,12.5 to 150,12.5 to 150,1 to 3.5,12.5 to 150,12.5 to 150
"CCc1ccc2[nH]c(-c3[nH]c(=O)c(C(=O)O)c(O)c3CC)cc2c1 [Cpd 381, 5-ethyl-6-(5-ethyl-1H-indol-2-yl)-4-hydroxy-2-oxo-1,2-dihydropyridine-3-carboxylic acid]",12.5 to 150,12.5 to 150,12.5 to 150,12.5 to 150,12.5 to 150,3.5 to 12.5,< 1,12.5 to 150,12.5 to 150
"CCc1c(-c2ccc3c(ccn3-c3ccccc3)c2)[nH]c(=O)c(C(=O)O)c1O [Cpd 435, 5-ethyl-4-hydroxy-2-oxo-6-(1-phenyl-1H-indol-5-yl)-1,2-dihydropyridine-3-carboxylic acid]",12.5 to 150,12.5 to 150,12.5 to 150,12.5 to 150,12.5 to 150,< 1,< 1,12.5 to 150,12.5 to 150
"CCc1cc(C(=O)O)c(=O)[nH]c1-c1ccc2c(c1)cc(CN1CCN(C)CC1)n2C [Cpd 140, 5-ethyl-6-(1-methyl-2-((4-methylpiperazin-1-yl)methyl)-1H-indol-5-yl)-2-oxo-1,2-dihydropyridine-3-carboxylic acid]",3.5 to 12.5,1 to 3.5,12.5 to 150,12.5 to 150,1 to 3.5,12.5 to 150,< 1,12.5 to 150,12.5 to 150
"CCc1cc(C(=O)O)c(=O)[nH]c1-c1ccc2c(ccn2C)c1OCc1ccccc1 [Cpd 372, 6-(4-(benzyloxy)-1-methyl-1H-indol-5-yl)-5-ethyl-2-oxo-1,2-dihydropyridine-3-carboxylic acid]",12.5 to 150,12.5 to 150,12.5 to 150,12.5 to 150,12.5 to 150,12.5 to 150,12.5 to 150,12.5 to 150,12.5 to 150
"CCc1c(-c2ccc3cc(CNC(C)CC)[nH]c3c2)[nH]c(=O)c(C(=O)O)c1O.Cl (stereo not drawn) [Cpd 443, 6-(2-((sec-butylamino)methyl)-1H-indol-6-yl)-5-ethyl-4-hydroxy-2-oxo-1,2-dihydropyridine-3-carboxylic acid hydrochloride]",12.5 to 150,3.5 to 12.5,3.5 to 12.5,12.5 to 150,3.5 to 12.5,3.5 to 12.5,1 to 3.5,12.5 to 150,3.5 to 12.5
"CCc1c(-c2ccc3c(c2)cc2n3CC(N)C2)[nH]c(=O)c(C(=O)O)c1O.Cl (stereo not drawn) [Cpd 413, 6-(2-amino-2,3-dihydro-1H-pyrrolo[1,2-a]indol-7-yl)-5-ethyl-4-hydroxy-2-oxo-1,2-dihydropyridine-3-carboxylic acid hydrochloride]",3.5 to 12.5,< 1,12.5 to 150,12.5 to 150,< 1,12.5 to 150,< 1,12.5 to 150,3.5 to 12.5
"CCc1c(-c2ccc3[nH]ccc3c2)[nH]c(=O)c(C(=O)O)c1O [Cpd 425, 5-ethyl-4-hydroxy-6-(1H-indol-5-yl)-2-oxo-1,2-dihydropyridine-3-carboxylic acid]",3.5 to 12.5,1 to 3.5,< 1,12.5 to 150,1 to 3.5,3.5 to 12.5,< 1,12.5 to 150,1 to 3.5
